Publication PMC9884808, “Pharmacokinetics, tissue distribution, and antitumor activity of a novel compound, NY-2, in non-small cell lung cancer” (Frontiers in Pharmacology, 2023)
Marks after values point to notes of the source that are not given here.

Assays:
A549 cells [1] = settings: 28 days
Procedure: The experimental groups included the normal (no tumor cells, vehicle) group, the model (tumor cells, vehicle) group, NY-2-treated, and paclitaxel-treated groups, with six mice in each group. After 7 days for adaptation, 200 µL of A549 cells (2× 10^6 cells/mice) in serum-free medium were injected into the tail vein except for those in the normal group. Drug or vehicle administration via tail vein was started on the next day. The normal group and model group were given the same amount of sterile water containing 1% DMSO and 1% Tween as vehicle control. […] Injections were done every other day. The general conditions of the nude mice, with regard to activity and food ingestion, were observed every day, and their body weight was measured every other day.
KM mice were treated with ZLDI-8 or NY-2 by tail vein injection (6 mg/kg) for 7 days, then the mice were euthanized and liver and kidney tissues were removed and sectioned. For the experiment with BALB/c nude mice, the tail vein injections of NY-2 (6 mg/kg) were continued for 28 days, and the lungs, tumor, heart, liver, and kidney were removed. […] Sections for staining were dewaxed with xylene and then rehydrated, and hematoxylin-eosin staining was performed, after which the sections were again dehydrated in ethanol and cleared with xylene before being mounted on a slide, cover-slipped and examined microscopically. The remainder of the tumors and tissues was frozen in liquid nitrogen for other studies.

A549 cells [2] = assay: Colony formation assay; type: cell-based, human; settings: 2.5, 5, 10 μM; 9 days of growth
A549 cells [3] = assay: Apoptosis, annexin-V/PI double staining; type: cell-based, human; settings: 48 h, control 0.86 ± .05%
Procedure: For the apoptosis assay, cells were seeded into 6-well plates at 1× 10^5 cells per well, and after attachment for 4–6 h, they were incubated with different concentration of NY-2 for 48 h. After washing with 1×PBS, the cells were stained with Hoechst 33342 (5 μg/mL, 1 mL per well, C1022, Beyotime Biotechnology, China) for 20 min in a 37°C incubator followed by two washes with PBS. The number of apoptotic cells was counted under an inverted fluorescence microscope (Olympus, Japan). Apoptosis was also determined using an annexin V-FITC apoptosis detection kit (ABS50001, Absin Bioscience Inc., Shanghai, China). Cells were plated in 100 mm Petri dishes at a density of 1 × 10^6 cells/dish, after 4–6 h for attachment, cells were incubated with different concentrations of NY-2 for 48 h. For each sample, cells were harvested by trypsin digestion without EDTA and washed with 1 × PBS. Cells were resuspended in 300 μL of binding buffer, and 5 μL of annexin V-FITC solution were added and incubated at room temperature in the dark for 15 min, followed by the addition of 5 μL of propidium iodide (PI) solution. The sample staining was assessed by flow cytometry (BD Co., United States).

[4] = nude mice, NY-2 6 mg/kg, paclitaxel 1 mg/kg, n=6, mean ± SEM

For `Cc1c(C=C2C(=O)NC(=S)NC2=O)c2ccccc2n1CCOc1ccc(F)cc1` [NY-2], the “Body weight before dissection” value (A549 cells [1]; nude mice with A549 lung metastasis, tail vein every other day, NY-2 6 mg/kg, paclitaxel 1 mg/kg, n=6, mean ± SEM) was 23.48 ± 0.50 g, the “Heart as a proportion of body weight” value (A549 cells [1]; [4]) was 0.56 ± 0.03 10^-2 and the “Kidney as a proportion of body weight” value (A549 cells [1]; [4]) was 1.74 ± 0.03 10^-2. The “Liver as a proportion of body weight” value (A549 cells [1]; [4]) was 5.45 ± 0.05# 10^-2, the “Lung as a proportion of body weight” value (A549 cells [1]; [4]) was 0.67 ± 0.03 10^-2 and the “Quality of the heart” value (A549 cells [1]; [4]) was 0.13 ± 0.01 g. The “Quality of the kidney” value (A549 cells [1]; [4]) was 0.41 ± 0.01 g, the “Quality of the liver” value (A549 cells [1]; [4]) was 1.28 ± 0.04 g and the “Quality of the lung” value (A549 cells [1]; [4]) was 0.16 ± 0.01 g. The “average percentage of metastatic lung surface area to the total lung area” value (A549 cells [1]; nude mice, A549 tail vein, NY-2 6 mg/kg every other day, model group 12.91 ± 11.93%) was 0.25 ± .62%, the “infiltration of A549 cells in the lung tissue (H&E)” value (A549 cells [1]; nude mice, NY-2 6 mg/kg, paclitaxel 1 mg/kg) was “no infiltration of A549 cells in the lung tissue” and the “toxic effects on the heart, liver or kidney (H&E)” value (A549 cells [1]; nude mice, tail vein injection 6 mg/kg) was “no obvious toxic effects”. The “colony formation of A549 cells” value (A549 cells [2]) was “inhibit colony formation of A549 cells in a concentration-dependent manner”, the “percentage of A549 cells in apoptosis” value (A549 cells [3]; 5 μM) was 5.45 ± 3.28% and the “percentage of A549 cells in apoptosis” value (A549 cells [3]; 10 μM) was 20.29 ± 3.11%.
